Inconclusive results are not listed.

This test deals with U2OS PGC1a acetylation AlphaLISA, overnight. Briefly: PGC1a acetylation increase, cellular AlphaLISA – cell-based, cherry-picked samples, set 6, dose response (AID 720513).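 Also: cells made to overexpress flag tagged PGC1a plus GCN5 acetyltransferase by viral infection.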
Consider `CN1Cc2c(N3CCOCC3)nc3sc(C(=O)c4ccc(Br)cc4)c(N)c3c2CC1(C)C`, for which the AC40 is 0.996 µM.

Consider `CCOC(=O)C1=CC[C@@H](c2ccc([N+](=O)[O-])cc2)N(S(=O)(=O)c2ccc(C)cc2)[C@H]1c1ccccc1`, for which the AC40 was 5.13 µM.

Turning to `Cc1cc(C(F)(F)F)n(-c2nc(C(=O)NNS(=O)(=O)c3ccccc3[N+](=O)[O-])cs2)n1`, the AC40 is 3.43 µM.

`CC1CCN(S(=O)(=O)c2ccc(NC(=O)c3ccccc3F)cc2)CC1`: the AC40 was 15.3 µM.

For `COc1ccc2c(c1)CCc1c(C(=O)NCCCn3ccnc3)noc1-2`, the AC40 is 18.9 µM.

`C[C@H]1CN([C@@H](C)CO)C(=O)c2cccc(NC(=O)c3cnccn3)c2O[C@H]1CN(C)Cc1ccc(C(=O)Nc2ccccc2N)cc1`: the AC40 is under 2.6 µM.

As for `O=C(NCc1csc(-c2cccs2)n1)c1cccc(Cl)c1`, the AC40 was 6.13 µM.

`COC(=O)[C@H](Cc1ccccc1)N(C)S(=O)(=O)c1cccc(S(=O)(=O)N(C)[C@@H](Cc2ccccc2)C(=O)OC)c1`: the AC40 is 9.66 µM.

Consider `O=C(Nc1ccc2c(c1)OCO2)C1CCN(c2ccc(S(=O)(=O)N3CCOCC3)cc2)CC1`, for which the AC40 was 9.15 µM.

As for `CCC(=O)N(CC)c1nc(-c2ccc(OC)cc2)cs1`, the AC40 was 3.53 µM.

Consider `CC(C)(C)c1ccc(NC(=O)N2CCCN(c3ccc([N+](=O)[O-])cn3)CC2)cc1`, for which the AC40 was 0.25 µM.

Turning to `CCN(CC)CCCn1c(=S)[nH]c2cc(Cl)ccc2c1=O`, the AC40 was 0.631 µM.

In the case of `C[C@@H]1CN([C@H](C)CO)C(=O)c2cc(N(C)C)ccc2O[C@@H](C)CCCCO[C@H]1CN(C)C(=O)Cc1ccccc1`, the AC40 was 5.69 µM.

On to `Cc1ccc(OC(=O)N(C)C[C@H]2OCc3ccccc3-c3c(n(C)c4ccccc34)C(=O)N([C@H](C)CO)C[C@H]2C)cc1`, for which the AC40 is 7.6 µM.

On to `CC(C)(C)n1nnnc1C(CCc1ccccc1)N1CCC2(CC1)C(=O)NCN2c1ccccc1` (stereo unspecified), for which the AC40 was 5.44 µM.

Turning to `Cc1cc(C)nc(NC(=O)c2c(-c3ccccc3Cl)noc2C)n1`, the AC40 was 16.8 µM.

In the case of `O=C(CSc1nc2ccccc2c(=O)n1CC1CCCO1)N1CCN(c2ccccc2)CC1` (stereo unspecified), the AC40 is 18.6 µM.

`C[C@@H]1CN([C@@H](C)CO)C(=O)c2c(c3ccccc3n2C)-c2ccccc2CO[C@@H]1CN(C)C(=O)Nc1cccc(C(F)(F)F)c1`: the AC40 was 10 µM.

On to `CC(=O)c1ccc(OCC(=O)OCC(=O)Nc2sccc2C(N)=O)cc1`, for which the AC40 was 6.46 µM.

With `COc1cc2nc(SCc3c(C)noc3C)n(CCC3=CCCCC3)c(=O)c2cc1OC`, the AC40 was 2.51 µM.

Take `COc1ccc(Cn2nnnc2C(C(C)C)N(Cc2ccco2)Cc2cccs2)cc1` (stereo unspecified): the AC40 was 2.6 µM.

Consider `C[C@H](CO)N1C[C@H](C)[C@@H](CN(C)Cc2ccc3c(c2)OCO3)Oc2ccc(NC(=O)Nc3ccc4c(c3)OCO4)cc2CC1=O`, for which the AC40 was 18.2 µM.

For `COc1cccc(C(=O)/C=C/c2ccc(OCC#N)c(OC)c2)c1`, the AC40 was 6.74 µM.

Regarding `CC(=O)Nc1ccc(NC(=O)CN(c2cc(Cl)ccc2Cl)S(C)(=O)=O)cc1`, the AC40 is 1.14 µM.

On to `CC(=O)Nc1ccc(NC(=O)CN(c2cccc([N+](=O)[O-])c2)S(C)(=O)=O)cc1`, for which the AC40 was 0.482 µM.

For `COc1ccc(-n2nnnc2CNC(=O)c2ccc3ccccc3c2)cc1`, the AC40 is 6.36 µM.

In the case of `COc1ccc(CNc2ccc(-c3ccc(OC)cc3)nn2)cc1`, the AC40 is 1.47 µM.

Take `Cc1cccc2cc(CN(Cc3ccc(F)cc3)Cc3nnnn3C3CCCC3)c(=O)[nH]c12`: the AC40 was 4.14 µM.

For the compound `O=C(CS(=O)CC(=O)Nc1cccc2c1CCCC2)Nc1ccc(F)cc1` (stereo unspecified), the AC40 was 10.9 µM.

As for `Cc1cc(C(=O)NNS(=O)(=O)c2ccc(F)cc2)nn1C(C)(C)C`, the AC40 was 1.09 µM.

Turning to `Cc1cc2oc(=O)cc(CN3CCC(C)CC3)c2cc1C`, the AC40 was 5.71 µM.

As to `Cc1ccc(-n2cccn2)c(CN2CCCC(C(=O)c3sccc3C)C2)c1` (stereo unspecified), the AC40 is 9.08 µM.

On to `O=C(NC1CCCCC1)c1cccnc1C(=O)O`, for which the AC40 is 3.2 µM.

As for `O=C(NCc1ccccc1)N1CCC(n2cnc3cc(F)ccc32)CC1`, the AC40 is 1.89 µM.

Regarding `O=C(NCc1ccccc1)c1ccc(NC(=O)C2CC2)cc1`, the AC40 is 11.1 µM.

For `c1ccc(Cn2nnnc2C(c2cccs2)N2CCCCCC2)cc1` (stereo unspecified), the AC40 was 14.2 µM.

In the case of `COc1ccc(S(=O)(=O)N(C)C[C@@H]2Oc3cc(C#CC4CC4)ccc3S(=O)(=O)N([C@@H](C)CO)C[C@@H]2C)cc1`, the AC40 is 15.2 µM.

Regarding `COc1ccc(CCNC(=O)COc2ccc(S(=O)(=O)N3CCCC3)cc2)cc1`, the AC40 was 19.3 µM.

For `CCN(CC)C(=O)CSc1nnc2nnc3cc(Cl)ccc3n12`, the AC40 was 17.9 µM.

For the compound `COc1ccc(C#Cc2cnc3c(c2)C(=O)N([C@H](C)CO)C[C@H](C)[C@H](CN(C)S(=O)(=O)c2cccs2)O3)cc1OC`, the AC40 is 18.2 µM.

`CCN(CC)CCOc1ccc(/C(=C(\Cl)c2ccccc2)c2ccccc2)cc1`: the AC40 was 3.01 µM.

Consider `Nc1ccc(N2CCCCC2)cc1N1CCCCC1`, for which the AC40 was 5.98 µM.

Regarding `C[C@@H]1CN([C@@H](C)CO)C(=O)c2c(c3ccccc3n2C)-c2ccccc2CO[C@@H]1CN(C)C(=O)Nc1ccc2c(c1)OCO2`, the AC40 was 7.87 µM.

Turning to `CCN(CC)CC(=O)N1c2ccccc2CCc2ccc(NC(=O)c3cc(OC)c(OC)c(OC)c3)cc21`, the AC40 is 8.84 µM.

Consider `COc1ccc(S(=O)(=O)Nc2ccc3c(c2)C(=O)N([C@@H](C)CO)C[C@@H](C)[C@H](CN(C)S(=O)(=O)c2ccc(Cl)cc2)OCCCC[C@H](C)O3)cc1`, for which the AC40 was 9.66 µM.

With `COc1ccc(-c2cc(-c3ccccc3O)[nH]n2)cc1OC`, the AC40 was 7.33 µM.

In the case of `Cc1cccc(OC2(c3ccccc3)OC(=O)c3ccccc32)c1C` (stereo unspecified), the AC40 was 3.37 µM.

`COc1ccccc1/C=C1\SC(=S)N(CCC(=O)NCCCn2ccnc2)C1=O`: the AC40 was 2.88 µM.

Consider `CC1CN(S(=O)(=O)c2ccc(C(=O)NCCCn3ccnc3)cc2)CC(C)O1` (stereo unspecified), for which the AC40 was 0.246 µM.

In the case of `CC(=O)C1=CCC(c2cccc3ccccc23)N(S(=O)(=O)c2ccc(C)cc2)C1` (stereo unspecified), the AC40 was 18.7 µM.

With `Cc1ccc(O)c(C(=O)c2cnc3c(c2)CN(CCC(C)C)C(=O)N3)c1`, the AC40 is 10.2 µM.

As to `O=[N+]([O-])c1ccc(N2CCN(CC3CCCCC3)CC2)cc1`, the AC40 is 16 µM.

Regarding `C[C@@H]1CN([C@H](C)CO)C(=O)c2cc(N(C)C)ccc2O[C@@H](C)CCCCO[C@H]1CN(C)C(=O)Nc1ccccc1`, the AC40 is 10.6 µM.

With `O=C(CSc1nnc(Cn2cnc3ccccc32)o1)c1ccccc1`, the AC40 was 7.68 µM.

Turning to `CCOC(=O)C1=CC[C@@H](c2ccc(OC)cc2)N(S(=O)(=O)c2ccc(C)cc2)[C@H]1CC`, the AC40 was 3.36 µM.

As to `CCCOc1ccc(C(=O)Nc2cccnc2)cc1`, the AC40 is 2.52 µM.

As to `Cc1noc(C)c1S(=O)(=O)Nc1ccc2c(c1)C(=O)N([C@@H](C)CO)C[C@@H](C)[C@@H](CN(C)Cc1ccc3c(c1)OCO3)OCCCC[C@@H](C)O2`, the AC40 is 3.78 µM.

On to `COc1ccc(NC(=O)CSC2CC(=O)N(c3ccc4c(c3)OCCO4)C2=O)cc1` (stereo unspecified), for which the AC40 was 16.5 µM.

For the compound `O=C1C=C(c2cc3ccccc3s2)CCC1`, the AC40 was 3.77 µM.

`Cc1ccc(S(=O)(=O)NC(CC(C)C)C(=O)N2CCCCCCC2)cc1` (stereo unspecified): the AC40 is 1.59 µM.

Consider `CCOC(=O)CCc1c(C)c2ccc(O)cc2oc1=O`, for which the AC40 was 0.371 µM.

Turning to `CCOC(=O)C(C)n1cnc2c(nnn2-c2ccc(C)cc2)c1=O` (stereo unspecified), the AC40 is 2.7 µM.

As for `O=[N+]([O-])c1cc(-c2nnc(Nc3ccc(O)cc3)c3ccccc23)ccc1N1CCOCC1`, the AC40 was 2.74 µM.

As to `CCN(CC)c1ccc(NC(=O)c2cc(OC)cc(OC)c2)c(C)c1`, the AC40 was 12.3 µM.

Take `O=C1NCN(c2ccccc2)C12CCN(C(c1cc3ccccc3o1)c1nnnn1C1CCCCC1)CC2` (stereo unspecified): the AC40 was 1.78 µM.

For `Cc1cccc(CS(=O)(=O)c2ncc(Cl)c(C(=O)Nc3ccc(F)cc3)n2)c1`, the AC40 was 1.56 µM.

Regarding `CCOC(=O)C1CCCN(S(=O)(=O)c2ccc3c(c2)NC(=O)CO3)C1` (stereo unspecified), the AC40 was 0.439 µM.

`C=CCn1c(SCC(=O)NC(=O)NCc2ccco2)nc2sc(CC)cc2c1=O`: the AC40 is 11.3 µM.

With `COc1ccccc1-c1ccc2c(c1)O[C@@H](CN(C)Cc1ccc3c(c1)OCO3)[C@@H](C)CN([C@@H](C)CO)S2(=O)=O`, the AC40 was 10.6 µM.

With `COc1ccc(CCNCc2ccc(-c3ccccc3)cc2)cc1OC`, the AC40 is 2.23 µM.

Consider `O=C(NN1c2ccccc2CCc2ccccc21)c1ccccc1Br`, for which the AC40 is 4.84 µM.

As for `CC(Sc1nc2ccccc2s1)C(=O)NC1CCCc2ccccc21` (stereo unspecified), the AC40 is 12.4 µM.

`CN1c2ccccc2C2(C)CCCC3=Cc4cccc([N+](=O)[O-])c4OC312` (stereo unspecified): the AC40 is 0.48 µM.

Regarding `OCc1ccc2c(c1)c(-c1ccc3c(c1)OCCO3)c(-c1ccccc1)n2-c1ccccc1`, the AC40 was 0.184 µM.

Take `CCn1c(SCC(=O)Nc2ccc(NC(=O)c3ccco3)cc2)nnc1-c1cccs1`: the AC40 was 1.7 µM.

As to `Cc1ccc(S(=O)(=O)Nc2ccc3c(c2)C(=O)N([C@@H](C)CO)C[C@@H](C)[C@H](CN(C)C(=O)Nc2cccc4ccccc24)OCCCC[C@H](C)O3)cc1`, the AC40 is 3.83 µM.

Turning to `C[C@@H]1CN([C@H](C)CO)C(=O)c2c(c3ccccc3n2C)-c2ccccc2CO[C@@H]1CN(C)C(=O)Nc1cccc(C(F)(F)F)c1`, the AC40 is 10.5 µM.

As to `Cc1ccc(Cl)cc1NC(=O)Cn1nc(-c2cccs2)ccc1=O`, the AC40 is 4.08 µM.

In the case of `C[C@@H]1CN([C@@H](C)CO)C(=O)Cc2cc(NC(=O)Cc3ccccc3)ccc2O[C@H]1CN(C)C(=O)Nc1ccccc1`, the AC40 is 0.263 µM.

As to `COc1ccc([N+](=O)[O-])cc1NCc1ccccc1`, the AC40 is 2.95 µM.

Turning to `CC1(C)OC(C)(C)/C(=C\c2ccc(OCC(N)=O)cc2)C1=O`, the AC40 is 6.64 µM.

Turning to `COc1ccc2c(c1)C(C)=CC(C)(C)N2S(=O)(=O)c1ccc(Br)cc1`, the AC40 is 2.69 µM.

As to `COc1ccc(OC)c(NC(=O)CSc2nnc(-c3cccnc3)s2)c1`, the AC40 is 0.792 µM.

Turning to `COC(=O)c1ccc2[nH]c3cccc(/C(=C/c4ccccc4)c4ccccc4)c3c2c1`, the AC40 is 3.62 µM.

As to `O=C(CCc1nc2ccccc2c(=O)[nH]1)Nc1ccc(N2CCCCC2)cc1`, the AC40 is 4.4 µM.

As to `CC(C)NC(=O)Nc1ccc2c(c1)C(=O)N([C@@H](C)CO)C[C@@H](C)[C@@H](CN(C)S(=O)(=O)c1ccccc1)OCCCC[C@H](C)O2`, the AC40 is 14.8 µM.

Values taken from PubChem BioAssay AID720513 (Broad Institute, 2013).
